Source: publication PMC5650372 (Oncotarget, 2017)
Like-named read-outs stand apart in the source and are kept apart here.

How the values were obtained:
pATM S1981 = assay: Western blot of cell-free NHEJ reaction (MCF7 nuclear extract); type: biochemical, human; settings: MCF7 nuclear extract with linear dsDNA
Procedure: (§1) Nuclear protein (10-20 μg) prepared above was pre-treated with compounds as indicated on ice for 15 minutes. Twenty-five nanograms of EcoRI-digested pBluescript DNA (Stratagene, La Jolla, CA) were then added and the mixture was adjusted to 20 μL final volume in NHEJ buffer (50 mM Hepes-KOH pH 8.0, 40 mM KOAc, 1 mM Mg(OAc)2, 1 mM ATP, 0.1 mg/mL BSA, and 1 mM DTT). After incubation at 25°C for 60 minutes, the reaction was terminated by incubation with 1 μg/mL RNase A for 10 minutes followed by treatment with 2 mg/mL Protease K in 0.5% SDS at 55°C for 30 minutes. The reactions were run onto 0.8% agarose and the gel was stained with Sybr Green (S756, Invitrogen, Carlsbad, CA). For Western blots, an aliquot of the same reaction mixture described above was subjected to SDS-PAGE, transferred to the PVDF membrane, and immunoblotted with indicated antibodies.

pChk2 T68 = assay: as above; type: biochemical, human; settings: MCF7 nuclear extract, 0.05, 0.5 or 5 μM
Procedure: as §1

pDNA-PK S2056 = assay: as above; type: biochemical, human
Procedure: as §1

[1] = molecular target: T1, DNA-PKcs, XRCC4 and DNA ligase IV on DNA (Homo sapiens, UniProt P78527); assay: DNA end binding assay (MCF7 nuclear extract); type: biochemical; settings: 5 μM, MCF7 nuclear extract, 10, 30, 60 minutes
T1 construct: endogenous in cells; host or cells: MCF7 nuclear extract
Excerpt: One kb of DNA fragment, including an EcoRI sequence in the middle, was amplified by PCR using pEGFP as a template and a pair of biotinylated EGFP primers (5′-biotin-[…]-3′ and 5′-biotin-[…]-3′: Valuegene, San Diego, CA). The amplified DNA fragment was cleaved by EcoRI to produce two 0.5 kb biotinylated DNA fragments, and was purified using the QIAquick PCR purification kit (Qiagen). […] An aliquot of the reaction was removed at each time point to separate the supernatant and the beads. The supernatant was subjected to SDS-PAGE and immunoblotting with indicated antibodies. The beads were washed twice with 250 μL of IP buffer (25 mM Hepes-KOH, pH 7.5, 100 mM NaCl, 20% glycerol, 5 mM EDTA, 1 mM DTT, 0.05% Nonidet P-40, 10 mM NaF, and protease inhibitor mixture) and subjected to SDS-PAGE and immunoblotting with indicated antibodies.

[2] = system: NCI-H1975 and SW1573 cells; assay: Clonogenic assay alone or with etoposide; type: cell-based, human; settings: for combination with 6.8 μM etoposide on colony formation: 10 μM compound, 4 hours; for effect on cell survival, single agent: 4 hours treatment alone
Procedure: Media were changed every three days. Plates were incubated for a total of about two weeks then fixed and stained using the DIFF QUIK staining kit. Colonies were imaged and counted.

[3] = system: NHEJ in HCT116 colorectal cancer cells; assay: 384-well image-based cellular NHEJ assay; type: cell-based; settings: Homo sapiens, HCT-116; HCT116, n=3
Excerpt: (§2) ATM and ATR assay and IC50 determination Cellular NHEJ assay
(§3) HA-ATM and FLAG-ATR (HA-labeled ATM, and The experimental design is illustrated in FLAG-labeled ATR) were each transiently expressed in Supplementary Figure 4. Cal-51 breast cancer cells HEK293 cells (293FT cells, Invitrogen Cat: R700-07) were separately transfected with pEGFP plasmid (6085-using Lipofectamine as transfection reagent. Cells were 1, Clontech, Mountain View, CA) digested with either harvested 6 days post transfection and spun down to EcoRI (to measure NHEJ) or StuI (to measure transfection separate cells from media. Cells were then lysed using a efficiency) using a Amaxa cell line nuclearfector kit V lysis buffer (50 mM Tris buffer, (Tris(hydroxylmethyl)- (CCA-1003, Lonza). Immediately after the transfection, aminomethane, pH 7.5), 100 mM NaCl, 50 mM βGOP, the cells were treated with DMSO or compounds at 10% Glycerol, 0.5% Tween 20, 1 mM EDTA, 25 mM indicated concentrations for 24 hours and GFP-positive sodium fluoride (NaF), 20 nM microcystine, 2 mM cells were counted under a fluorescent microscope. NHEJ phenylmethylsulfonylfluoride (PMSF) and protease activity was calculated by the number of GFP-positive inhibitor cocktail) followed by sonication 3 times and a cells in cells transfected with pEGFP-EcoRI divided by final spin at 20,000 rpm for 30 minutes to generate a clear that in cells transfected with pEGFP-StuI, multiplied by lysate. To perform the immunoprecipitation, enzymes were 100. […]
(§4) or FLAG tags. Beads plus enzymes were then washed 3 developed. Different cell lines were transfected using times with lysis buffer and spun down at 1000 rpm for the procedure described above and subsequently seeded 1 minute. Beads plus enzymes were resuspended in lysis into 384-well plates at optimized density for individual buffer and kept at 4°C until assay. Assays for ATM and cell lines. Cells were then treated with compounds at ATR were conducted in a 33P radioactive assay format. increasing concentrations. GFP+ cells were imaged Assay buffer contained the following reagents: 1 mg/mL and quantitated using the IncuCyte (Essen Bioscience, GST-p53 (glutathione S-transferase–p53 fusion protein) Ann Arbor, MI). NHEJ activity was then normalized substrate (expressed in-house), 20 μg/mL calf thymus to the DMSO control and fitted to the Sigmoidal Dose-DNA activator (Sigma), 100 μg/mL BSA, 200 μM EGTA Response Model (IDBS XLFit Model 205; London, UK)

[4] = system: NHEJ in PC3 prostate cancer cells; assay: 384-well image-based cellular NHEJ assay; type: cell-based; settings: Homo sapiens; PC3, n=3
Excerpt: as §2, §3, §4

[5] = system: NHEJ in MDA-MB-231 breast cancer cells; assay: 384-well image-based cellular NHEJ assay; type: cell-based; settings: Homo sapiens; MDA-MB-231, n=3
Excerpt: as §2, §3, §4

NHEJ in Cal-51 cells = assay: 384-well image-based cellular NHEJ assay; type: cell-based; settings: Homo sapiens; Cal-51, n=3
Excerpt: as §2, §3, §4

Rad51-foci in LoVo cells = assay: Rad51-foci immunofluorescence (homologous recombination); type: cell-based, human
NHEJ activity = assay: Reconstituted cell-free NHEJ assay (MCF7 nuclear extract); type: biochemical, human
Procedure: MCF7 human breast cancer cells (5-10 x 10^7 each) were incubated in 5 pellet volumes of cold hypotonic buffer (10 mM Hepes-KOH, pH 7.5, 1.5 mM MgCl2, 5 mM KCl, and 0.5 mM DTT) for 20 minutes and were homogenized in a tight-fitting glass dounce homogenizer for 10-20 strokes. The nuclei were then collected by low-speed centrifugation and nuclear proteins were extracted by high-salt buffer (50 mM Tris-HCl, pH 7.5, 1 M KCl, 2 mM EDTA, 1 mM DTT, and protease inhibitors). The extracted nuclear proteins were dialyzed against 1 L of dialysis buffer (20 mM Tris-HCl, pH 8.0, 20% glycerol, 0.1 M KOAc, 0.5 mM EDTA, and 1 mM DTT) for 1 hour and were used for the in vitro NHEJ assay.
as §1

ATM = molecular target: T2, ATM (Homo sapiens, UniProt Q13315); parameters: method as in earlier work; settings: Lit. reported value ref 3; cited from earlier work
T2 construct: made in house; host or cells: HEK293 (293FT cells, Invitrogen R700-07), transient transfection, immunoprecipitation on Protein G Sepharose

mTOR kinase = mTOR kinase (Homo sapiens, UniProt P42345); assay: mTOR kinase enzyme assay; type: biochemical; settings: average ± SEM
Procedure: (§5) mTOR, DNA-PK and PI3K-alpha assays were to determine percent inhibition. An IC50 value was then
(§6) performed as reported previously. estimated. […]

ATR [6] = molecular target: T3, ATR (Homo sapiens, UniProt Q13535); parameters: method as in earlier work; settings: Lit. reported value ref 3; cited from earlier work
T3 construct: made in house; host or cells: HEK293 (293FT cells, Invitrogen R700-07), transient transfection, immunoprecipitation on Protein G Sepharose
T3 sequence (Q13535 whole entry): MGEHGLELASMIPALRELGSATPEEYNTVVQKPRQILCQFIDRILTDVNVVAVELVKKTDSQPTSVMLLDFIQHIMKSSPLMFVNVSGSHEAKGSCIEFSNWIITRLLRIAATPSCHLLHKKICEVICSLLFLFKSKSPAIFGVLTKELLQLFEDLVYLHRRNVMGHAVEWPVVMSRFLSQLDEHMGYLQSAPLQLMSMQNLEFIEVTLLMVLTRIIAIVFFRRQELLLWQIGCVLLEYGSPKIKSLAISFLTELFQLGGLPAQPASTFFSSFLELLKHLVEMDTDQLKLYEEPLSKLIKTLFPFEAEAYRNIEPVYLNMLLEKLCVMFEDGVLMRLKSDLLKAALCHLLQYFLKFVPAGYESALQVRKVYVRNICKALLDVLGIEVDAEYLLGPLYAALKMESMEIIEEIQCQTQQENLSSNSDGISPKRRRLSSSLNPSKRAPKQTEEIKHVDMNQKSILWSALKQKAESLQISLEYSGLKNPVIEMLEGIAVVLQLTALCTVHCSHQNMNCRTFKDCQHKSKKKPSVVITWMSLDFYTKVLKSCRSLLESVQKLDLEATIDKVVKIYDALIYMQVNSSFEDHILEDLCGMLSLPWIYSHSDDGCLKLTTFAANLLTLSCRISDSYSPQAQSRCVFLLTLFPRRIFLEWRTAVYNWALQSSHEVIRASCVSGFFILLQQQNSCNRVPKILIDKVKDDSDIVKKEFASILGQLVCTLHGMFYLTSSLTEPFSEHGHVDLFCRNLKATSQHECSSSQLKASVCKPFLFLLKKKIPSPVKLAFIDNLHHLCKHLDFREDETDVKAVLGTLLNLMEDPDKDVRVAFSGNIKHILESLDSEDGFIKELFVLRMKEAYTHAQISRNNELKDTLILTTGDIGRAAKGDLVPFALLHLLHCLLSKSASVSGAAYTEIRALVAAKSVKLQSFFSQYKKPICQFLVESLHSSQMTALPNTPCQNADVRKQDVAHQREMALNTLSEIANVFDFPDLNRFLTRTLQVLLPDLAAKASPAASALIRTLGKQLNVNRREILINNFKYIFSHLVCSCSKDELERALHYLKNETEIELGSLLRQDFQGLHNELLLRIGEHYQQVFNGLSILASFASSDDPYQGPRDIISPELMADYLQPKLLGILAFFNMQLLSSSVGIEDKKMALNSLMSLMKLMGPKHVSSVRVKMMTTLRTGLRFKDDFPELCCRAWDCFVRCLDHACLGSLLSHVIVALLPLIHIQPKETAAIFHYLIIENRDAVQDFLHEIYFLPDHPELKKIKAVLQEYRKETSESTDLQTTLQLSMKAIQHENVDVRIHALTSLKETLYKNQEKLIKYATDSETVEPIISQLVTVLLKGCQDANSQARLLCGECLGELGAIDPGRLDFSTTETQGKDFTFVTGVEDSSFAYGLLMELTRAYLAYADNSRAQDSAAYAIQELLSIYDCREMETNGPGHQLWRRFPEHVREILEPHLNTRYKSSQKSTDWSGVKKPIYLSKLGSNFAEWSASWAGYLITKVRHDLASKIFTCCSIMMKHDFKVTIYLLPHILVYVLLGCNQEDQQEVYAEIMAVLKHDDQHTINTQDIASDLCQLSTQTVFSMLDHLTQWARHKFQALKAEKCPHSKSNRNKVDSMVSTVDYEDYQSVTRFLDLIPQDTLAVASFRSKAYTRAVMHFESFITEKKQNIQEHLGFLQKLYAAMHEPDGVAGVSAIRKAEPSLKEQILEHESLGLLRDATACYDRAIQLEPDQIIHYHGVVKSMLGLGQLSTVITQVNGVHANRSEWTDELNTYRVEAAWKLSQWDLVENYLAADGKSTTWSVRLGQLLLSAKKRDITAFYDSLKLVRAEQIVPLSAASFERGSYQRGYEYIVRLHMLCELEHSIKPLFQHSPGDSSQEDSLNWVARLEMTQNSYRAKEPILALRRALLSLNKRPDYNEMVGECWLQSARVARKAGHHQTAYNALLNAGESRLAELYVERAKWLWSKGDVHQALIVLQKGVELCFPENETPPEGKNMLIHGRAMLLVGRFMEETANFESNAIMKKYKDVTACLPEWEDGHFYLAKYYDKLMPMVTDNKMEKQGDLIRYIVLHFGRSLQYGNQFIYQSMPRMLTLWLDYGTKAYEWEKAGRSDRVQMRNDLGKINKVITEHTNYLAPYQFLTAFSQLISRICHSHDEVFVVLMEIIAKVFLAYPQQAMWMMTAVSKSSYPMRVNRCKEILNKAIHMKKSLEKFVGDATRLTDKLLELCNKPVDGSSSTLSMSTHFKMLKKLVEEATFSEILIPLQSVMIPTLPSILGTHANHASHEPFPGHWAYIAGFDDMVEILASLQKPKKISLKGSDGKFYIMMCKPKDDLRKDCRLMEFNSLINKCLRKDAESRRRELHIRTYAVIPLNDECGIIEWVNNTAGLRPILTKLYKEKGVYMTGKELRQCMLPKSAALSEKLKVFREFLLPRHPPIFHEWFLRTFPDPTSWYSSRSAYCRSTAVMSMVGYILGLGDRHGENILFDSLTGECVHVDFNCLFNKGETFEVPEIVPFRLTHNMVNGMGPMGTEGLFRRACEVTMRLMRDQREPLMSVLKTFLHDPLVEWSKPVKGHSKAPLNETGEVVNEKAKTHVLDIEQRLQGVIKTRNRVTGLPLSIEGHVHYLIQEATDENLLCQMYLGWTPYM

ATR [7] = molecular target: T3, ATR; assay: ATR 33P radioactive kinase assay (immunoprecipitated FLAG-ATR); type: biochemical
Procedure: deficient cell growth in vitro […]
incorporated in the corresponding no inhibitor control mTOR, DNA-PK and PI3K-alpha assays were to determine percent inhibition. An IC50 value was then performed as reported previously. estimated.
as §2
as §3, with “microscope.” for “microscope. NHEJ phenylmethylsulfonylfluoride (PMSF) and protease activity was calculated by the number of GFP-positive inhibitor cocktail) followed by sonication 3 times and a cells in cells transfected with pEGFP-EcoRI divided by final spin at 20,000 rpm for 30 minutes to generate a clear that in cells transfected with pEGFP-StuI, multiplied by lysate. To perform the immunoprecipitation, enzymes were 100.”

DNA-PK = DNA-PK (Homo sapiens, UniProt P78527); assay: DNA-PK enzyme assay; type: biochemical; settings: average ± SEM; CC214-1 n=2
Procedure: as §5, §6

[8] = concentration series (0.05 to 5 μM)

Row | Structure (SMILES) | inhibition of pATM S1981, cell-free (pATM S1981) | inhibition of pChk2 T68, cell-free (pChk2 T68) | inhibition of pDNA-PK S2056, cell-free (pDNA-PK S2056) | combination with 6.8 μM etoposide on colony formation [2] | effect on cell survival, single agent [2] | IC50 [3] [µM] | IC50 [4] [µM] | IC50 [5] [µM] | IC50 (NHEJ in Cal-51 cells) [µM] | inhibition of NHEJ activity, cell-free (NHEJ activity; [8]) | IC50 (mTOR kinase) [µM] | IC50 (DNA-PK) [µM] | other results
1 | O=c1cc(N2CCOCC2)oc2c(-c3cccc4c3sc3ccccc34)cccc12 [NU7441, 8-(4-dibenzothienyl)-2-(4-morpholinyl)-4H-1-benzopyran-4-one] | reduction | also inhibited | also inhibited | synergistic effect | minimal effect on cell survival | 6.22 ± 6.76 | 1.03 ± 0.17 | 0.63 ± 0.08 | 2.56 ± 0.84 | Inhibition of NHEJ was also observed | 1.64 ± 0.2 | – | DNA-PKcs, XRCC4 and DNA ligase IV bound to DNA over time [1]: retained from 10 minutes through the end of the reaction at 60 minutes; Rad51-foci positive nuclei (HR efficiency) (Rad51-foci in LoVo cells; 5 μM compound with 0.1 μM doxorubicin): 10.3%; IC50 (ATM): > 100 µM; IC50 (ATR [6]): > 100 µM
2 | CC(C)(O)c1ccc(-c2cnc3c(n2)N(CC2CCOCC2)CC(=O)N3)cn1 [CC214-2, 6-(6-(2-hydroxypropan-2-yl)pyridin-3-yl)-4-((tetrahydro-2H-pyran-4-yl)methyl)-3,4-dihydropyrazino[2,3-b]pyrazin-2(1H)-one] | – | – | did not inhibit | synergy was not observed | minimal effect on cell survival | > 10 | > 10 | > 10 | > 10 | not changed | – | > 10 | IC50 (ATR [7]): > 3 µM
3 | O=c1cc(-c2cccc3c2Sc2ccccc2S3)oc(N2CCOCC2)c1 [KU55933, 2-(4-morpholinyl)-6-(1-thianthrenyl)-4H-pyran-4-one] | efficiently inhibited | concentration-dependent inhibition | not DNA-PK phosphorylation | – | – | – | – | – | – | did not inhibit | – | – | –
4 | COc1cccc2c1C(=O)c1c(O)c3c(c(O)c1C2=O)C[C@@](O)(C(=O)CO)C[C@@H]3O[C@H]1C[C@H](N)[C@H](O)[C@H](C)O1 [doxorubicin] | – | – | – | – | – | – | – | – | – | – | – | – | Rad51-foci positive nuclei (HR efficiency) (Rad51-foci in LoVo cells; 0.1 μM doxorubicin only): 24%
5 | COc1cc([C@@H]2c3cc4c(cc3[C@@H](O[C@@H]3O[C@@H]5CO[C@@H](C)O[C@H]5[C@H](O)[C@H]3O)[C@H]3COC(=O)[C@H]23)OCO4)cc(OC)c1O [etoposide] | – | – | – | – | substantially impairs survival | – | – | – | – | – | – | – | –
6 | O=c1[nH]c2ncc(-c3ccc(-c4nc[nH]n4)cc3)nc2n1CCC1CCOCC1 [CC214-1, 6-(4-(1H-1,2,4-triazol-3-yl)phenyl)-1-(2-(tetrahydro-2H-pyran-4-yl)ethyl)-1,3-dihydro-2H-imidazo[4,5-b]pyrazin-2-one] | – | – | to a smaller extent | – | – | – | – | – | – | – | 0.002 ± 0.0002 | 0.141 | inhibition of NHEJ activity, cell-free (NHEJ activity; 5 μM): Minimal inhibition
